Experimental data: publication PMC9837035 (Nature Communications, 2023)
pIC50: −log10 of the molar value. “And” between values parts separate entries of the source, which are not always exact repeats. Identical values can stand only once. Like-named read-outs stand apart in the source and are kept apart here.

Legend:
[1] = system: HbF in CD34+-derived cells; test: Flow cytometry of HbF-expressing CD34+-derived cells; type: cell-based, human
Protocol: For the analysis of HbF expression, HUDEP-2 cells or cells differentiated from human CD34 + progenitor cells were fixed in 0.05% glutaraldehyde for 10 min, then washed two times with PBS containing 2% FBS (PBS/2% FBS) and permeabilized with 0.1% Triton X-100 (prepared in PBS/2% FBS; Life Technologies) for 5 min. After washing with PBS/2% FBS two times, cells were stained with allophycocyanin (APC)-conjugated HbF antibody (1:1, Invitrogen, MHFH05). One million cells were incubated with the HbF–APC antibody for 30 min in the dark at 4 °C. Cells were washed twice with PBS/2% FBS, then suspended in 0.2 ml PBS/2% FBS and analyzed using a FACSCalibur (Becton Dickinson). To assess erythroid differentiation, hematopoietic cells differentiated from human CD34 cells were stained with FITC-conjugated CD45 antibody (1:1, Becton Dickinson, 555482) and APC-conjugated glycophorin A antibody (1:20, Becton Dickinson, 551336). Stained cells were suspended in 0.2 ml PBS/2% FBS containing 1 μg/ml propidium iodide (Sigma) and analyzed by FACSCalibur. The results of flow cytometer were further analyzed by FlowJo software (Becton Dickinson).

[2] = system: β- and γ-globin genes in HUDEP-2 cells; test: RT-qPCR of β- and γ-globin in HUDEP-2 cells; type: cell-based, human
Protocol: Total cellular RNA was prepared using the Tissue Total RNA Mini Kit (FAVORGEN), and cDNA was synthesized using ReverTra Ace Master Mix (TOYOBO). Expression of target genes was analyzed using THUNDERBIRD SYBR qPCR Mix (TOYOBO) on a CFX Connect Real Time System (Bio-Rad). The qPCR data were acquired on CFX Maestro (Bio-Rad). Primers are listed in Supplementary Table 10. GAPDH was used as a reference. Primers were purchased from INTEGRATED DNA TECHNOLOGIES or FASMAC.

CD34+ cells = test: Cell viability of CD34+ cells by cell counting; type: cell-based, human; conditions: for cell viability: CD34+ cells, 10 days
Protocol: HUDEP-2 cells and HiDEP-1 cells were grown in Stemline II Hematopoietic Stem Cell Expansion Medium (Sigma) supplemented with 50 ng/mL recombinant stem cell factor (SCF; R&D systems), 3 IU/mL recombinant erythropoietin (EPO; Kyowa Kirin), 1 μM dexamethasone (Dex; Sigma), and 1 μg/mL doxycycline (Sigma). A total of 1 × 10^5 human CD34^+ progenitor cells derived from bone marrow or peripheral blood (Lonza) were cultured on 35-mm dishes (BD Falcon) in StemSpan SFEMII medium with 50 ng/mL SCF, 5 IU/mL EPO, and 10 ng /mL interleukin 3 (IL-3; R&D systems). The medium was changed on day 4 to SCF, EPO, and 1 μM Dex, and the cells were transferred to 60-mm dishes (BD Falcon). Seven days after the onset of differentiation, cells were counted and 1 × 10^6 cells were re-plated on 100-mm dishes (BD Falcon) with SCF, EPO, and Dex. The rat myoblast cell line H9c2, HEK293T, and PLAT-E cells were maintained in Dulbecco’s modified Eagle’s medium (Thermo Fisher Scientific) supplemented with 10% heat-inactivated fetal bovine serum (FBS) and penicillin/streptomycin. All cells were cultured at 37 °C under 5% CO2.

PRMT3 = molecular target: T1, PRMT3 (Homo sapiens, UniProt O60678); test: Radioisotope-based methyltransferase assay (selectivity); type: biochemical
T1 construct: purchased Reaction Biology

SUV420H1TV2 = molecular target: T2, SUV420H1TV2 (Homo sapiens, UniProt Q4FZB7); test: as above; type: biochemical
T2 construct: purchased Reaction Biology

DNMT3a = molecular target: T3, DNMT3a (Homo sapiens, UniProt Q9Y6K1); test: as above; type: biochemical
T3 construct: purchased Reaction Biology

[3] = Parental cells, relative to Parental DMSO = 1, replicate values
[4] = single agents or combination, relative to DMSO = 1, replicate values

T1 sequence (O60678 whole entry): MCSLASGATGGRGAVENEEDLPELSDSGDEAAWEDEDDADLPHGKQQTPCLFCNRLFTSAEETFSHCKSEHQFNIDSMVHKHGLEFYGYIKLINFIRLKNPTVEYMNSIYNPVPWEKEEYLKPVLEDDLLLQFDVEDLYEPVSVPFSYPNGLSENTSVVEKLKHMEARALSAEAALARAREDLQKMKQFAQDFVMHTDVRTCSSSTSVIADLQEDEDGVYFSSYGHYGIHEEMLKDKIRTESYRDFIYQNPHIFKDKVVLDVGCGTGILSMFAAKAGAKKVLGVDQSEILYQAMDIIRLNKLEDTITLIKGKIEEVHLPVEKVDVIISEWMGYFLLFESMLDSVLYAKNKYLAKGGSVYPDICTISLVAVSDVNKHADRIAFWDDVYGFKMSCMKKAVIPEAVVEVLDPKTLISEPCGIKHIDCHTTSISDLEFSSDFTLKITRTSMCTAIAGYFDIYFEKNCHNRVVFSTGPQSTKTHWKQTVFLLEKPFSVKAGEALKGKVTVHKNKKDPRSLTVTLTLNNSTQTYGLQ
T3 sequence (Q9Y6K1 whole entry, looked up): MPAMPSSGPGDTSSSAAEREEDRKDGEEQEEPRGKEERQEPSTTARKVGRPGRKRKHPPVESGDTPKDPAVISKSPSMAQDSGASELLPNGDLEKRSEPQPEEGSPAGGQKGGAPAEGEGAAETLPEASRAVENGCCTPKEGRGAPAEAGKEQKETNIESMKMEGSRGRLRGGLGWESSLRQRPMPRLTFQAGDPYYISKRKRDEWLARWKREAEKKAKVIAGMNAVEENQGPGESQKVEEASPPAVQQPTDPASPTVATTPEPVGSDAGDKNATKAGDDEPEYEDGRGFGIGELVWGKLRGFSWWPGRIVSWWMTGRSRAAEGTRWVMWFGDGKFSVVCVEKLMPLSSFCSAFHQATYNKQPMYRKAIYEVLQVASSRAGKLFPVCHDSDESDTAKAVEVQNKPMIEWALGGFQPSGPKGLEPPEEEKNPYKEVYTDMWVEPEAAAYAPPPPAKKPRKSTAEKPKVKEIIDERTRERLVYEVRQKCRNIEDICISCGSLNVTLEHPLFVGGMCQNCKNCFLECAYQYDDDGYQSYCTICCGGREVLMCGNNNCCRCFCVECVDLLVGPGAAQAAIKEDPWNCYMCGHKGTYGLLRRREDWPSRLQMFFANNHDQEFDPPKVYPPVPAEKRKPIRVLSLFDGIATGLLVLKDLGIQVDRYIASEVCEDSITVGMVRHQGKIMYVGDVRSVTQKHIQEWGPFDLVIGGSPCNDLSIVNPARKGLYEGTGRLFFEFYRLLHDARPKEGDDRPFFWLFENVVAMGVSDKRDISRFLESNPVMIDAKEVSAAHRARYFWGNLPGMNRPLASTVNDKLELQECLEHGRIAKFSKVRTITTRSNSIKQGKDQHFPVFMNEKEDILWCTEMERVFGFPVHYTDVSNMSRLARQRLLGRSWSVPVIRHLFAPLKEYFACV
T2 sequence (Q4FZB7 1-393 isoform Q4FZB7-2): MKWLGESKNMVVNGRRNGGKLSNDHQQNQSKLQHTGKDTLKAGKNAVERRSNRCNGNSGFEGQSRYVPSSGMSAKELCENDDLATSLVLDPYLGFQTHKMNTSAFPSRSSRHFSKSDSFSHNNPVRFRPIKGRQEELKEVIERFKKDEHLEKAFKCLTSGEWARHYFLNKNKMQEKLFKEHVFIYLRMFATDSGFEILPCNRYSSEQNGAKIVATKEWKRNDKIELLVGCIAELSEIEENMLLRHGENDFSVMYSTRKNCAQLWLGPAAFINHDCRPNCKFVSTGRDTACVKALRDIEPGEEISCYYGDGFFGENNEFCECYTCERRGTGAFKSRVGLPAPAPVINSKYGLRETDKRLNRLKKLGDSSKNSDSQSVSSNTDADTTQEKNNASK

NC(=O)NO [Hydroxyurea, hydroxyurea]
HbF induction compared with RK-701 [1]: less effective in inducing HbF than RK-701
Percentage of HbF-expressing cells ([1]; day 11, 10 μM, listed as HU): 32.8% and 45.2% and 37.4%
Percentage of HbF-expressing cells ([1]; day 11, 50 μM, listed as HU): 63% and 65.2% and 61.5%
β-globin in hydroxyurea-treated HUDEP-2 cells [2, 3]: 1.499 and 1.443 and 1.4392
γ-globin in hydroxyurea-treated HUDEP-2 cells [2, 3]: 3.312 and 3.051 and 3.256
Cell viability in CD34+ cells (CD34+ cells; 10 μM): 3.83 10*7 cells and 4.25 10*7 cells and 4.44 10*7 cells
Cell viability in CD34+ cells (CD34+ cells; 50 μM): 1.8 10*7 cells and 1.47 10*7 cells and 1.48 10*7 cells
cell viability (CD34+ cells): severe cytotoxicity

Cc1c(C(=O)NC(CCC2CC2)C(=O)Nc2ccc(C#N)cc2)[nH]c2c1C(=O)CC(C)(C)C2 (centres unmarked) [RK-701]
Percentage of HbF-expressing cells ([1]; day 11, 0.01 μM): 22.7% and 27% and 19%
Percentage of HbF-expressing cells ([1]; day 11, 0.03 μM): 41.2% and 51.3% and 42.4%
Percentage of HbF-expressing cells ([1]; day 11, 0.1 μM): 71.3% and 76.8% and 67.7%
Percentage of HbF-expressing cells ([1]; day 11, 0.3 μM): 83.5% and 83.7% and 81.1%
Percentage of HbF-expressing cells ([1]; day 11, 1 μM): 84.2% and 87.4% and 83.5%
Percentage of HbF-expressing cells ([1]; day 11, 3 μM): 84.8% (2×) and 85.2%
γ-globin mRNA level ([2]; HUDEP-2): upregulated
β-globin expression in HUDEP-2 cells treated with RK-701 and decitabine [2, 4]: 1.116 and 1.192 and 1.151
γ-globin expression in HUDEP-2 cells treated with RK-701 and decitabine [2, 4]: 2.225 and 1.925 and 1.787
pIC50 (PRMT3; PRMT3, 1 μM SAM): < 4.00
pIC50 (PRMT3; PRMT3, RK-701 in duplicate): < 4.00
pIC50 (SUV420H1TV2; SUV420H1TV2, 1 μM SAM): < 4.00
pIC50 (SUV420H1TV2; SUV420H1TV2, RK-701 in duplicate): < 4.00
pIC50 (DNMT3a; DNMT3a, 1 μM SAM, read-out: IC50): < 4.00
pIC50 (DNMT3a; DNMT3a, RK-701 in duplicate, read-out: IC50): < 4.00
Cell viability in CD34+ cells (CD34+ cells; 0.01 μM): 4.59 10*7 cells and 4.56 10*7 cells and 4.57 10*7 cells
Cell viability in CD34+ cells (CD34+ cells; 0.03 μM): 4.39 10*7 cells and 4.41 10*7 cells and 4.97 10*7 cells
Cell viability in CD34+ cells (CD34+ cells; 0.1 μM): 4.54 10*7 cells and 4.45 10*7 cells and 4.75 10*7 cells
Cell viability in CD34+ cells (CD34+ cells; 0.3 μM): 4.11 10*7 cells and 4.64 10*7 cells and 4.5 10*7 cells
Cell viability in CD34+ cells (CD34+ cells; 1 μM): 4.01 10*7 cells and 4.28 10*7 cells and 4.43 10*7 cells
Cell viability in CD34+ cells (CD34+ cells; 3 μM): 4.31 10*7 cells and 4.53 10*7 cells and 4.47 10*7 cells
cell viability (CD34+ cells): without affecting cell viability

Nc1ncnc2c1ncn2[C@@H]1O[C@H](CSCC[C@H](N)C(=O)O)[C@@H](O)[C@H]1O [SAH, S-(5'-Adenosyl)-L-homocysteine, reference compound]
pIC50 (PRMT3; PRMT3, 1 μM SAM): 5.62
pIC50 (PRMT3; PRMT3, RK-701 in duplicate): 5.61
pIC50 (SUV420H1TV2): 3.90
pIC50 (DNMT3a; IC50, DNMT3a, 1 μM SAM): 6.52
pIC50 (DNMT3a; IC50, DNMT3a, RK-701 in duplicate): 6.52
